The values that follow come from article PMC11946187 (Viruses, 2025).

Assay [1] addresses SNV endonuclease (full-length L protein) (Sin Nombre orthohantavirus, UniProt A0A059WLS4). As to the kind of experiment: biochemical. On the set-up: species or system Sin Nombre virus.
The target of assay [2] is SFTSV L protein (RNA synthesis) (Dabie bandavirus, UniProt I0DF35). Format: biochemical, severe fever with thrombocytopenia syndrome virus.
The target of assay [3] is IBV endonuclease (full-length IBV RdRp complex PA/PB1/PB2) (Influenza B virus, UniProt Q5V8Z9). In words: biochemical.
Assay [4] has as its system SNV L protein (RNA synthesis). Format: biochemical, Sin Nombre virus.
Assay [5] deals with SFTSV endonuclease (full-length L protein) (Dabie bandavirus, UniProt I0DF35). As to the kind of experiment: biochemical. On the set-up: species or system severe fever with thrombocytopenia syndrome virus.
For another assay, the system named is IBV RdRp (RNA synthesis). Format: biochemical, influenza B virus.

SMILES strings stand for the structures. Entries after “also recorded” stand apart in the source; their conditions may differ. Like-named read-outs stand apart in the source and are kept apart here.

On to `O=C1c2c(O)c(=O)ccn2N([C@@H]2c3ccccc3CSc3ccccc32)[C@@H]2COCCN12` [kCOT912, (R)-12-((R)-6,11-dihydrodibenzo[b,e]thiepin-11-yl)-7-hydroxy-3,4,12,12a-tetrahydro-1H-[1,4]oxazino[3,4-c]pyrido[2,1-f][1,2,4]triazine-6,8-dione], for which the IC50 in assay [1] (IC50 (μM) SNV (Figure 7B)), in assay [3] and in assay [5] (IC50 (μM) SFTSV (Figure 7B)) was over 100 µM each time. In addition, the “inhibition of RNA synthesis by SFTSV” value in assay [2] is “lack of inhibition of RNA synthesis”. Further, the “inhibition of RNA synthesis by SNV” value in assay [4] is recorded as “lack of inhibition of RNA synthesis”. For the same molecule, in the assay on IBV RdRp (RNA synthesis), the “inhibition of RNA synthesis by IBV” value was “lack of inhibition of RNA synthesis”.
With `O=C(O)c1cn2c(c(O)c1=O)C(=O)N1CCOC[C@H]1N2[C@@H]1c2ccccc2SCc2c1ccc(F)c2F` [kCOT923, (R)-12-((S)-7,8-difluoro-6,11-dihydrodibenzo[b,e]thiepin-11-yl)-7-hydroxy-6,8-dioxo-3,4,6,8,12,12a-hexahydro-1H-[1,4]oxazino[3,4-c]pyrido[2,1-f][1,2,4]triazine-9-carboxylic acid], the IC50 in assay [1] (IC50 (μM) SNV (Figure 7B)) came out at 13 ± 3 µM; in assay [3] it was 0.41 ± 0.02 µM; in assay [5] (IC50 (μM) SFTSV (Figure 7B)), 41 µM. The “inhibition of RNA synthesis by SFTSV” value in assay [2] is “lack of inhibition of RNA synthesis”. Further, in assay [4], the “inhibition of RNA synthesis by SNV” value was “lack of inhibition of RNA synthesis”. In the assay with IBV RdRp (RNA synthesis), the “inhibition of RNA synthesis by IBV” value is reported as “lack of inhibition of RNA synthesis”.
Regarding `O=C1c2c(O)c(=O)ccn2N(C2c3ccccc3SCc3c2ccc(F)c3F)C2COCCN12` [kCOT909, (R)-12-((R)-7,8-difluoro-6,11-dihydrodibenzo[b,e]thiepin-11-yl)-7-hydroxy-3,4,12,12a-tetrahydro-1H-[1,4]oxazino[3,4c]pyrido[2,1-f] [1,2,4]triazine-6,8-dione], the values for the IC50 in assay [1] (IC50 (μM) SNV (Figure 7B)), in assay [3] (IC50 (μM) IBV (Figure 7B)) and in assay [5] (IC50 (μM) SFTSV (Figure 7B)) were over 100 µM, 0.32 ± 0.006 µM and over 100 µM, respectively. In addition, in assay [2], the “inhibition of RNA synthesis by SFTSV” value is “lack of inhibition of RNA synthesis”. Besides, the “inhibition of RNA synthesis by SNV” value in assay [4] is “lack of inhibition of RNA synthesis”. Moreover, the “inhibition of RNA synthesis by IBV” value with IBV RdRp (RNA synthesis) is listed as “lack of inhibition of RNA synthesis”.
`O=C1c2c(O)c(=O)ccn2N([C@@H]2c3ccccc3SCc3c2ccc(F)c3F)[C@@H]2COCCN12` [BXA, Baloxavir acid, reference compound]: in assay [1], the “concentration from which inhibition of SNV endonuclease became evident” value is reported as ~ 250 µM. Besides, the 50% inhibitory concentration (IC50) in assay [1] (IC50 (μM) SNV (Figure 7B)) was over 100 µM; in assay [1] (IC50, SNV endonuclease activity) it was 622 µM; in assay [3] (IC50 (μM) IBV (Figure 7B)) it was 0.21 ± 0.006 µM; in assay [3] (IC50, endonuclease activity of IBV), 0.209 µM; in assay [5] (IC50 (μM) SFTSV (Figure 7B)), 16 µM; in assay [5] (IC50, SFTSV endonuclease activity), 16.5 µM. Besides, the “inhibition of RNA synthesis by SFTSV” value in assay [2] is “lack of inhibition of; also recorded: did not inhibit RNA synthesis”. Further, in assay [4], the “inhibition of RNA synthesis by SNV” value is listed as “lack of inhibition of; also recorded: did not inhibit RNA synthesis”. The “inhibition of RNA synthesis by IBV” value with IBV RdRp (RNA synthesis) is “lack of inhibition of; also recorded: did not inhibit RNA synthesis”.
With `CC(C)N1CN([C@H]2c3ccccc3SCc3c2ccc(F)c3F)n2ccc(=O)c(O)c2C1=O` [kCPF855], the results for the IC50 in assay [1] (IC50 (μM) SNV (Figure 7B)), in assay [3] and in assay [5] (IC50 (μM) SFTSV (Figure 7B)) were over 100 µM, 0.71 ± 0.03 µM and over 100 µM, respectively. Moreover, the “inhibition of RNA synthesis by SFTSV” value in assay [2] is recorded as “lack of inhibition of RNA synthesis”. Moreover, the “inhibition of RNA synthesis by SNV” value in assay [4] was “lack of inhibition of RNA synthesis”. Further, the “inhibition of RNA synthesis by IBV” value in the assay with IBV RdRp (RNA synthesis) was “lack of inhibition of RNA synthesis”.
